System: New Zealand (albino) rabbits
Test: Tear secretion in albino rabbits after topical instillation (Schirmer strips)
Assay type: in vivo
Details: for Tear secretion % Mean (% of baseline) / Tear secretion (mm) Mean: 1×50 microliters, right eye
Protocol: New Zealand (albino) rabbits were the experimental model used to test the action of duramycin. Four animals were involved for each formulation: Duramycin was used in a formulation at 0.5 mg/ml dissolved in saline (0.9% sodium chloride) at pH between 6 and 7 and was compared with 0.9% sodium chloride and with 0.9% sodium chloride at pH between 6 and 7 (vehicle). Animals were randomly allocated into 3 groups of 4 animals each by a computer controlled program.
Aliquots (1×50 microliters) were administered using a micropipette into the right eyes while the left eyes remained untreated. Sampling was performed in the right eyes for a constant interval of 15 seconds before the instillation and at 15, 30, 60, 120, and 180 minutes after instillation. Tear secretion was collected and measured on treated eyes using Schimer strips.
Tear secretion, measured as the tear migration onto Schirmer strips for 15 seconds, was expressed in millimeters (mm) and in percents (%) of baseline values. The % of baseline values was the mean of individual %. T max is the time when the maximum mean value is obtained and is expressed in minutes (min).
Mean AUC0-180 min value (area under the curve from baseline to 180 min) is the mean of individual AUC0-180 min values calculated using the trapezoidal rule and is expressed in mm×min and in %×min.

[1] = 15 min after instillation, 0.5 mg/ml
[2] = 30 min after instillation, 0.5 mg/ml
[3] = 60 min after instillation, 0.5 mg/ml
[4] = 120 min after instillation, 0.5 mg/ml
[5] = 180 min after instillation, 0.5 mg/ml
[6] = baseline to 180 min, trapezoidal rule, mean of individual values, 0.5 mg/ml

Substance: duramycin
- Tear secretion % Mean (% of baseline) (0 min (before instillation, baseline), 0.5 mg/ml): 100.0%
- Tear secretion (mm) Mean (0 min (before instillation, baseline), 0.5 mg/ml, Schirmer strip 15 seconds): 2.8 mm
- Increase of tear secretion compared with saline, based on AUC0-180 min in % (0.5 mg/ml vs saline treatment): 3.56 times
- Increase of tear secretion compared with saline, based on AUC0-180 min in mm (0.5 mg/ml vs saline treatment): 1.92 times
- Increase of tear secretion compared with saline, based on maximum value in % (0.5 mg/ml vs saline treatment): 4.59 times
- Increase of tear secretion compared with saline, based on maximum value in mm (0.5 mg/ml vs saline treatment): 2.47 times
- Tear secretion % Mean (% of baseline) [1]: 329.2%
- Tear secretion (mm) Mean [1]: 6.0 mm
- Tear secretion % Mean (% of baseline) [2]: 459.4%
- Tear secretion (mm) Mean [2]: 9.4 mm
- Tear secretion % Mean (% of baseline) [3]: 260.4%
- Tear secretion (mm) Mean [3]: 4.8 mm
- Tear secretion % Mean (% of baseline) [4]: 157.3%
- Tear secretion (mm) Mean [4]: 3.5 mm
- Tear secretion % Mean (% of baseline) [5]: 245.8%
- Tear secretion (mm) Mean [5]: 4.9 mm
- Tmax (time when the maximum mean tear secretion is obtained) (after instillation, 0.5 mg/ml): 30 min
- AUC 0-180 of tear secretion [6]: 891.6 mm × min
- AUC 0-180 of tear secretion (% of baseline) [6]: 44554.7 % × min

From patent US20060035811A1, “Methods of treating dry eye disease with lantibiotics” (priority 2002, published 2006)
